Assays:
[1] = biological target: Human immunodeficiency virus type 1 protease (Human immunodeficiency virus 1, UniProt Q72874); assay: Inhibitory activity against HIV-1 protease; details: read-out: Ki app
MOLT-4 = assay: Compound was tested for in vitro inhibitory activity against HIV replication in MOLT-4 cells; format: functional, cell-based; details: Homo sapiens

CC(C)c1c[nH]c([C@H](Cc2ccccc2)C[C@H](O)[C@H](Cc2ccccc2)NC(=O)[C@@H](NC=O)C(C)C)n1
Ki [1]: 4.6 nM

CCCc1cnc([C@H](Cc2ccccc2)C[C@H](O)[C@H](Cc2ccccc2)NC(=O)OC(C)(C)C)s1 (stereo in doubt; form 1)
Ki [1]: 700 nM

CCCCc1cnc([C@H](Cc2ccccc2)C[C@H](O)[C@H](Cc2ccccc2)NC(=O)OC(C)(C)C)s1
Ki [1]: 26000 nM

CCc1cnc([C@H](Cc2ccccc2)C[C@H](O)[C@H](Cc2ccccc2)NC(=O)OC(C)(C)C)s1
Ki [1]: 2000 nM

CCCc1cnc([C@H](Cc2ccccc2)C[C@H](O)[C@H](Cc2ccccc2)NC(=O)OC(C)(C)C)s1 (stereo in doubt; form 3)
Ki [1]: 4600 nM

CCC(O)c1cnc([C@H](Cc2ccccc2)C[C@H](O)[C@H](Cc2ccccc2)NC(=O)OC(C)(C)C)s1 (some centres not stated)
Ki [1]: 720 nM

COC(=O)N[C@H](C(=O)N[C@@H](Cc1ccccc1)[C@@H](O)C[C@@H](Cc1ccccc1)c1nc(C(C)C)c[nH]1)C(C)C
Ki [1]: 2.1 nM
IC50 (MOLT-4): 50 nM

CCC(=O)c1cnc([C@H](Cc2ccccc2)C[C@H](O)[C@H](Cc2ccccc2)NC(=O)OC(C)(C)C)s1
Ki [1]: 3700 nM

CC(C)(C)OC(=O)N[C@@H](Cc1ccccc1)[C@@H](O)C[C@@H](Cc1ccccc1)c1nc[nH]n1
Ki [1]: 5800 nM

CC(=O)N[C@H](C(=O)N[C@@H](Cc1ccccc1)[C@@H](O)C[C@@H](Cc1ccccc1)c1ncc(C(C)C)[nH]1)C(C)C
Ki [1]: 1 nM
IC50 (MOLT-4): 40 nM

CC(C)(C)OC(=O)N[C@@H](Cc1ccccc1)[C@@H](O)C[C@@H](Cc1ccccc1)c1ncc(C(=O)c2ccccc2)[nH]1
Ki [1]: 7800 nM

CC(C)(C)OC(=O)N[C@@H](Cc1ccccc1)[C@@H](O)C[C@@H](Cc1ccccc1)c1nccs1
Ki [1]: 3000 nM

CCC(C)C(=O)c1c[nH]c([C@H](Cc2ccccc2)C[C@H](O)[C@H](Cc2ccccc2)NC(=O)OC(C)(C)C)n1 (some centres not stated)
Ki [1]: 53 nM
IC50 (MOLT-4): 950 nM

CC(C)(C)OC(=O)N[C@@H](Cc1ccccc1)[C@@H](O)C[C@@H](Cc1ccccc1)c1nc(C(=O)C2CCCC2)c[nH]1
Ki [1]: 150 nM

CC(=O)N[C@@H](C(=O)N[C@@H](Cc1ccccc1)[C@@H](O)C[C@@H](Cc1ccccc1)c1nc(C(C)C)c[nH]1)C(C)C
Ki [1]: 150 nM

CC(C)c1c[nH]c([C@H](Cc2ccccc2)C[C@H](O)[C@H](Cc2ccccc2)NC(=O)[C@@H](NC(=O)OCc2ccccc2)[C@H](C)O)n1
Ki [1]: 1.4 nM
IC50 (MOLT-4): 11 nM

CCC(CC)C(=O)c1cnc([C@H](Cc2ccccc2)C[C@H](O)[C@H](Cc2ccccc2)NC(=O)OC(C)(C)C)[nH]1
Ki [1]: 46 nM
IC50 (MOLT-4): 850 nM

COC(=O)c1cnc([C@H](Cc2ccccc2)C[C@H](O)[C@H](Cc2ccccc2)NC(=O)OC(C)(C)C)[nH]1
Ki [1]: 1800 nM

CCOC(=O)N[C@H](C(=O)N[C@@H](Cc1ccccc1)[C@@H](O)C[C@@H](Cc1ccccc1)c1nc(C(C)C)c[nH]1)C(C)C
Ki [1]: 2.8 nM
IC50 (MOLT-4): 77 nM

CC(C)c1cnc([C@H](Cc2ccccc2)C[C@H](O)[C@H](Cc2ccccc2)NC(=O)[C@@H](NC(=O)OCc2ccccc2)C(C)C)[nH]1
Ki [1]: 0.6 nM
IC50 (MOLT-4): 100 nM

CC(C)c1cnc([C@H](Cc2ccccc2)C[C@H](O)[C@H](Cc2ccccc2)NC(=O)[C@@H](NC(=O)OC(C)(C)C)C(C)C)[nH]1
Ki [1]: 300 nM

CNC(=O)c1c[nH]c([C@H](Cc2ccccc2)C[C@H](O)[C@H](Cc2ccccc2)NC(=O)OC(C)(C)C)n1
Ki [1]: 3700 nM

CCCc1cnc([C@H](Cc2ccccc2)C[C@H](O)[C@H](Cc2ccccc2)NC(=O)OC(C)(C)C)s1 (stereo in doubt; form 2)
Ki [1]: 410 nM

CC(C)OC(=O)N[C@H](C(=O)N[C@@H](Cc1ccccc1)[C@@H](O)C[C@@H](Cc1ccccc1)c1ncc(C(C)C)[nH]1)C(C)C
Ki [1]: 7.9 nM
IC50 (MOLT-4): 134 nM
